Data from a compilation of properties of binary mixtures (doi:10.1021/acs.iecr.6b02875).

Experiment: xn = mol fraction of the nth substance listed
Conditions: 101 kPa; for electrical conductivity: 298.15 K

CCCOCCn1cc[n+](C)c1.O=S(=O)([N-]S(=O)(=O)C(F)(F)F)C(F)(F)F + O
x1 = 0.8308
Conditions | viscosity [mPa·s]
293 K | 48
303 K | 31.6
313 K | 21.9
323 K | 15.9
333 K | 12
343 K | 9.2
353 K | 7.3

Conditions | electrical conductivity [S/m]
x1 = 0.8308 | 0.404

CCOCC[n+]1ccn(C)c1.O=S(=O)([N-]S(=O)(=O)C(F)(F)F)C(F)(F)F + O
x1 = 0.8421
Conditions | viscosity [mPa·s]
293 K | 42.4
303 K | 27.8
313 K | 19.5
323 K | 14.2
333 K | 10.7
343 K | 8.3
353 K | 6.5

Conditions | electrical conductivity [S/m]
x1 = 0.8421 | 0.499

CCOCn1cc[n+](C)c1.O=S(=O)([N-]S(=O)(=O)C(F)(F)F)C(F)(F)F + O
x1 = 0.8413
Conditions | viscosity [mPa·s]
283 K | 81.6
293 K | 48.9
298.1 K | 38.8
303 K | 31.4
313 K | 21.6
323 K | 15.7
343 K | 9.1
353 K | 7.2

Conditions | electrical conductivity [S/m]
x1 = 0.8413 | 0.504

COCCCn1cc[n+](C)c1.O=S(=O)([N-]S(=O)(=O)C(F)(F)F)C(F)(F)F + O
x1 = 0.8318
Conditions | viscosity [mPa·s]
293 K | 49.6
298.1 K | 39.7
303 K | 32.1
313 K | 22.1
323 K | 15.9
333 K | 11.8
343 K | 9.1
353 K | 7.1

Conditions | electrical conductivity [S/m]
x1 = 0.8318 | 0.44

COCC[n+]1ccn(C)c1.O=S(=O)([N-]S(=O)(=O)C(F)(F)F)C(F)(F)F + O
x1 = 0.838
Conditions | viscosity [mPa·s]
293 K | 41.5
298.1 K | 33.3
303 K | 27.4
313 K | 19.4
323 K | 14.2
333 K | 10.7
343 K | 8.4
353 K | 6.7

COC[n+]1ccccc1.O=S(=O)([N-]S(=O)(=O)C(F)(F)F)C(F)(F)F + O
x1 = 0.8484
Conditions | viscosity [mPa·s]
283 K | 75.6
293 K | 46.3
313 K | 21.7
323 K | 15.8
343 K | 9.4
353 K | 7.5

COC[n+]1ccn(C)c1.O=S(=O)([N-]S(=O)(=O)C(F)(F)F)C(F)(F)F + O
x1 = 0.8281
Conditions | viscosity [mPa·s]
293 K | 48.3
298.1 K | 38.4
303 K | 31.1
313 K | 21.4
323 K | 15.4
333 K | 11.4
343 K | 8.8
353 K | 7

Conditions | electrical conductivity [S/m]
x1 = 0.8281 | 0.594
